Measurements from patent US11000033B2, “Ketone or oxime compound, and herbicide” (NISSAN CHEMICAL CORPORATION, priority 2014, dated 2021).

Experiments:
Format in all cases: in vivo
Stellaria media [1] = experiment: Test Example 4: herbicidal effect by soil treatment (symbol P); details: for P (Stellaria media) herbicidal effect grade: application herbicide amount 320 g/ha
Outline: (§1)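 Seeds were sown in sterilized diluvial soil, covered with about 1.5 cm of soil, and the soil surface was sprayed with a water-diluted emulsion of the compound at a predetermined rate. Plants grew in a greenhouse at 25° C. to 30° C.; effects were scored visually 3 weeks after application.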

Alopecurus myosuroides = experiment: Test Example 5: herbicidal effect by foliage application, plastic box (symbol J); details: 320 g/ha, 3 weeks after application
Outline: (§2)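 Leaf-applied emulsion, water-diluted to a preset herbicide dose, on two-week-old seedlings raised in a 25° C. to 30° C. greenhouse; injury rated at 3 weeks using earlier criteria.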

Apera spica-venti [2] = experiment: Test Example 5: herbicidal effect by foliage application, plastic box (symbol L); details: 320 g/ha, 3 weeks after application
Outline: as §2

Lolium multiflorum Lam. = experiment: Test Example 5: herbicidal effect by foliage application, plastic box (symbol K); details: 320 g/ha, 3 weeks after application
Outline: as §2

corn = experiment: Test Example 5: effect on crop by foliage application, plastic box (symbol c); details: 320 g/ha, 3 weeks after application
Outline: (§3)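 Crop and weed seeds sown in spots in sterilized diluvial soil in plastic boxes and covered with about 1.5 cm soil. Plants raised in a greenhouse at 25° C. to 30° C. for foliar application.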

[3] = test system: directly sowed rice plant; experiment: Test Example 3: effect on crop by foliage application, Wagner pot (symbol b); details: application herbicide amount 320 g/ha
Outline: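 Plants are raised from seed in flooded paddy conditions: water stands 0.1–0.5 cm over alluvial soil, and the pot is kept in a greenhouse at 25–30 °C. Species sown are barnyardgrass (E. crus-galli var. crus-galli), Leptochloa chinensis, Cyperus difformis and rice.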

Avena fatua = experiment: Test Example 5: herbicidal effect by foliage application, plastic box (symbol I); details: 320 g/ha, 3 weeks after application
Outline: as §2

Stellaria media [4] = experiment: Test Example 5: herbicidal effect by foliage application, plastic box (symbol P); details: 320 g/ha, 3 weeks after application
Outline: as §2

soybean = experiment: Test Example 4: effect on crop by soil treatment (symbol d); details: for d (soybean) effect on crop grade: application herbicide amount 320 g/ha
Outline: (§4)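 Crop seed is sown in spots together with several weed species in a box of sterilized diluvial soil. It is covered by about 1.5 cm of soil and kept in a greenhouse held between 25° C. and 30° C.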

Chenopodium album = experiment: Test Example 5: herbicidal effect by foliage application, plastic box (symbol O); details: 320 g/ha, 3 weeks after application
Outline: as §2

Apera spica-venti [5] = experiment: Test Example 4: herbicidal effect by soil treatment (symbol L); details: for L (Apera spica-venti) herbicidal effect grade: application herbicide amount 320 g/ha
Outline: as §1

Digitaria ciliaris = experiment: Test Example 5: herbicidal effect by foliage application, plastic box (symbol F); details: 320 g/ha, 3 weeks after application
Outline: as §2

Setaria viridis = experiment: Test Example 4: herbicidal effect by soil treatment (symbol G); details: for G (Setaria viridis) herbicidal effect grade: application herbicide amount 320 g/ha
Outline: as §1

wheat = experiment: Test Example 4: effect on crop by soil treatment (symbol e); details: for e (wheat) effect on crop grade: application herbicide amount 320 g/ha
Outline: as §4

[6] = test system: Echinochloa crus-galli var. crus-galli; experiment: Test Example 3: herbicidal effect by foliage application, Wagner pot (symbol H); details: application herbicide amount 320 g/ha
Outline: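 Plants sown in submerged alluvial soil (water depth 0.1–0.5 cm) in a 25–30 °C greenhouse and grown 14 days. An emulsion of the compound diluted in water to a set herbicide amount was sprayed uniformly on foliage. Effect on each plant scored 3 weeks after application.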

rice plant = experiment: Test Example 5: effect on crop by foliage application, plastic box (symbol b); details: 320 g/ha, 3 weeks after application
Outline: as §3

rapeseed = experiment: Test Example 4: effect on crop by soil treatment (symbol g)
Outline: as §4

Row | Structure (SMILES) | P (Stellaria media) herbicidal effect grade (Stellaria media [1]) | J: Alopecurus myosuroides, herbicidal effect grade (Alopecurus myosuroides) | L: Apera spica-venti, herbicidal effect grade (Apera spica-venti [2]) | K: Lolium multiflorum Lam., herbicidal effect grade (Lolium multiflorum Lam.) | c: corn, effect on crop grade (corn) | effect on crop b (directly sowed rice plant), grade 0-5 [3] | I: Avena fatua, herbicidal effect grade (Avena fatua) | P: Stellaria media, herbicidal effect grade (Stellaria media [4]) | d (soybean) effect on crop grade (soybean) | L (Apera spica-venti) herbicidal effect grade (Apera spica-venti [5]) | F: Digitaria ciliaris, herbicidal effect grade (Digitaria ciliaris) | G (Setaria viridis) herbicidal effect grade (Setaria viridis) | e (wheat) effect on crop grade (wheat) | herbicidal effect on H (Echinochloa crus-galli var. crus-galli), grade 0-5 [6] | b: directly sowed rice plant, effect on crop grade (rice plant) | J: Alopecurus myosuroides, herbicidal effect (criteria 0-5) (Alopecurus myosuroides) | L: Apera spica-venti, herbicidal effect (criteria 0-5) (Apera spica-venti [2]) | K: Lolium multiflorum Lam., herbicidal effect (criteria 0-5) (Lolium multiflorum Lam.) | c: corn, effect on crop (criteria 0-5) (corn) | I: Avena fatua, herbicidal effect (criteria 0-5) (Avena fatua) | also measured
1 | CON=C(CC1CC(O)=C(c2c(C)cc(C)cc2C)C1=O)c1ccccc1 (stereo not drawn) [1-047] | 0 (Herbicidal ratio of 5% or lower (almost no effect)) | 3 (Herbicidal ratio of 40% or higher and lower than 70%) | 1 (Herbicidal ratio of 5% or higher and lower than 20%) | 4 (Herbicidal ratio of 70% or higher and lower than 90%) | 0 (Herbicidal ratio of 5% or lower (almost no effect)) | 2 (Herbicidal ratio of 20% or higher and lower than 40%) | 0 (Herbicidal ratio of 5% or lower (almost no effect)) | 0 (Herbicidal ratio of 5% or lower (almost no effect)) | 0 (Herbicidal ratio of 5% or lower (almost no effect)) | 0 (Herbicidal ratio of 5% or lower (almost no effect)) | 1 (Herbicidal ratio of 5% or higher and lower than 20%) | 0 (Herbicidal ratio of 5% or lower (almost no effect)) | 0 (Herbicidal ratio of 5% or lower (almost no effect)) | 1 (Herbicidal ratio of 5% or higher and lower than 20%) | 4 (Herbicidal ratio of 70% or higher and lower than 90%) | – | – | – | – | – | O: Chenopodium album, herbicidal effect grade (Chenopodium album): 0 (Herbicidal ratio of 5% or lower (almost no effect))
2 | CON=C(C)CC1CC(OC(=O)COc2ccc(Cl)cc2Cl)=C(c2c(C)cc(C)cc2C)C1=O (stereo not drawn) [1-075] | 0 (Herbicidal ratio of 5% or lower (almost no effect)) | – | – | – | – | 5 (Herbicidal ratio of 90% or more (almost completely withered)) | – | – | 0 (Herbicidal ratio of 5% or lower (almost no effect)) | 5 (Herbicidal ratio of 90% or more (almost completely withered)) | – | 5 (Herbicidal ratio of 90% or more (almost completely withered)) | 4 (Herbicidal ratio of 70% or higher and lower than 90%) | 5 (Herbicidal ratio of 90% or more (almost completely withered)) | – | 5 (Herbicidal ratio of 90% or more (almost completely withered)) | 5 (Herbicidal ratio of 90% or more (almost completely withered)) | 5 (Herbicidal ratio of 90% or more (almost completely withered)) | 4 (Herbicidal ratio of 70% or higher and lower than 90%) | 5 (Herbicidal ratio of 90% or more (almost completely withered)) | P: Stellaria media, herbicidal effect (criteria 0-5) (Stellaria media [4]): 1 (Herbicidal ratio of 5% or higher and lower than 20%); F: Digitaria ciliaris, herbicidal effect (criteria 0-5) (Digitaria ciliaris): 5 (Herbicidal ratio of 90% or more (almost completely withered)); b: directly sowed rice plant, effect on crop (criteria 0-5) (rice plant): 5 (Herbicidal ratio of 90% or more (almost completely withered))
3 | CON=C(CC1CC(O)=C(c2c(C)cc(C)cc2C)C1=O)C1CCCC1 (stereo not drawn) [1-078] | – | – | – | – | – | 5 (Herbicidal ratio of 90% or more (almost completely withered)) | – | – | – | – | – | – | – | 5 (Herbicidal ratio of 90% or more (almost completely withered)) | – | 4 (Herbicidal ratio of 70% or higher and lower than 90%) | 3 (Herbicidal ratio of 40% or higher and lower than 70%) | 5 (Herbicidal ratio of 90% or more (almost completely withered)) | 3 (Herbicidal ratio of 40% or higher and lower than 70%) | 1 (Herbicidal ratio of 5% or higher and lower than 20%) | g: rapeseed, effect grade on crop (rapeseed; 320 g/ha): 1 (Herbicidal ratio of 5% or higher and lower than 20%); P: Stellaria media, herbicidal effect grade (Stellaria media [1]; 320 g/ha): 0 (Herbicidal ratio of 5% or lower (almost no effect)); P: Stellaria media, herbicidal effect (criteria 0-5) (Stellaria media [4]): 0 (Herbicidal ratio of 5% or lower (almost no effect)); d: soybean, effect grade on crop (soybean; 320 g/ha): 0 (Herbicidal ratio of 5% or lower (almost no effect)); L: Apera spica-venti, herbicidal effect grade (Apera spica-venti [5]; 320 g/ha): 4 (Herbicidal ratio of 70% or higher and lower than 90%); F: Digitaria ciliaris, herbicidal effect (criteria 0-5) (Digitaria ciliaris): 1 (Herbicidal ratio of 5% or higher and lower than 20%); G: Setaria viridis, herbicidal effect grade (Setaria viridis; 320 g/ha): 5 (Herbicidal ratio of 90% or more (almost completely withered)); e: wheat, effect grade on crop (wheat; 320 g/ha): 0 (Herbicidal ratio of 5% or lower (almost no effect)); b: directly sowed rice plant, effect on crop (criteria 0-5) (rice plant): 5 (Herbicidal ratio of 90% or more (almost completely withered))
4 | CCCCCCCCC(=O)OC1=C(c2c(C)cc(C)cc2C)C(=O)C(CC(C)=NOC)C1 (stereo not drawn) [1-033] | 0 (Herbicidal ratio of 5% or lower (almost no effect)) | 5 (Herbicidal ratio of 90% or more (almost completely withered)) | 5 (Herbicidal ratio of 90% or more (almost completely withered)) | 5 (Herbicidal ratio of 90% or more (almost completely withered)) | 4 (Herbicidal ratio of 70% or higher and lower than 90%) | 5 (Herbicidal ratio of 90% or more (almost completely withered)) | 5 (Herbicidal ratio of 90% or more (almost completely withered)) | 3 (Herbicidal ratio of 40% or higher and lower than 70%) | 0 (Herbicidal ratio of 5% or lower (almost no effect)) | 5 (Herbicidal ratio of 90% or more (almost completely withered)) | 5 (Herbicidal ratio of 90% or more (almost completely withered)) | 5 (Herbicidal ratio of 90% or more (almost completely withered)) | 5 (Herbicidal ratio of 90% or more (almost completely withered)) | 5 (Herbicidal ratio of 90% or more (almost completely withered)) | 5 (Herbicidal ratio of 90% or more (almost completely withered)) | – | – | – | – | – | g (rapeseed) effect on crop grade (rapeseed; application herbicide amount 320 g/ha): 5 (Herbicidal ratio of 90% or more (almost completely withered))
